The source of these data is PMC5849714, “Direct coupling of detergent purified human mGlu5 receptor to the heterotrimeric G proteins Gq and Gs” (Scientific Reports, 2018).

Molecules are shown by their SMILES.

For orientation: EC50 means the concentration needed to bring the measured effect to its halfway point.

The target of assay [1] is T1, human mGlu5 receptor (Homo sapiens, UniProt P41594). Put plainly: Bodipy-FL GTPγS activation of purified Gq/Gs by purified receptor ([…] ligand); pEC50 from IP-One assay in HEK293 cells. The format is biochemical. Details: gene GRM5; mGlu5-Δ856 (C-terminus truncated after Ala856).
Target sequence in this assay (P41594 21-856): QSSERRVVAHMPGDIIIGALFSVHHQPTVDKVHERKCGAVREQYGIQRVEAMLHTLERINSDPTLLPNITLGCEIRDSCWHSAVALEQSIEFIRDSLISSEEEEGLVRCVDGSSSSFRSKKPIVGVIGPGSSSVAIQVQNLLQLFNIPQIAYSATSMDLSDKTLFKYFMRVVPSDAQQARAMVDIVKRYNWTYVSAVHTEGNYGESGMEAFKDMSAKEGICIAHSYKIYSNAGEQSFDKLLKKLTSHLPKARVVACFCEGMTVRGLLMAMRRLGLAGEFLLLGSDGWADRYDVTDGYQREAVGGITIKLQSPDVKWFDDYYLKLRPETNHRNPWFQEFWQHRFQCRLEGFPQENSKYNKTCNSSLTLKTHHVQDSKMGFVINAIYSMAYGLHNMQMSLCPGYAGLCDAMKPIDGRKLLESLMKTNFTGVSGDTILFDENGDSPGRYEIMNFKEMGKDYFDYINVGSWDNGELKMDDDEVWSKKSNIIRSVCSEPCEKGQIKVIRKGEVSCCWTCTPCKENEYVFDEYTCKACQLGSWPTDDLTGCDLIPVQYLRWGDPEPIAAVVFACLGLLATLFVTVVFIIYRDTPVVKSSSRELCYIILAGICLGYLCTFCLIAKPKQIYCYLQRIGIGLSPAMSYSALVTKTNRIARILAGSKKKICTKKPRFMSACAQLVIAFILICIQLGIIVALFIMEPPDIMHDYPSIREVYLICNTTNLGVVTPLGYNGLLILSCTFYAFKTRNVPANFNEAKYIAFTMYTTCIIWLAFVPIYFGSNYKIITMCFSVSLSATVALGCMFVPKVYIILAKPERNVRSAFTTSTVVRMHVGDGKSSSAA
For assay [2], the target named is T1, human mGlu5 receptor. Kind of assay: IP-One accumulation in transfected HEK293 cells. The format is cell-based. Details: gene GRM5; full-length wild-type (SNAP-tagged).
Target sequence in this assay (P41594 21-1212): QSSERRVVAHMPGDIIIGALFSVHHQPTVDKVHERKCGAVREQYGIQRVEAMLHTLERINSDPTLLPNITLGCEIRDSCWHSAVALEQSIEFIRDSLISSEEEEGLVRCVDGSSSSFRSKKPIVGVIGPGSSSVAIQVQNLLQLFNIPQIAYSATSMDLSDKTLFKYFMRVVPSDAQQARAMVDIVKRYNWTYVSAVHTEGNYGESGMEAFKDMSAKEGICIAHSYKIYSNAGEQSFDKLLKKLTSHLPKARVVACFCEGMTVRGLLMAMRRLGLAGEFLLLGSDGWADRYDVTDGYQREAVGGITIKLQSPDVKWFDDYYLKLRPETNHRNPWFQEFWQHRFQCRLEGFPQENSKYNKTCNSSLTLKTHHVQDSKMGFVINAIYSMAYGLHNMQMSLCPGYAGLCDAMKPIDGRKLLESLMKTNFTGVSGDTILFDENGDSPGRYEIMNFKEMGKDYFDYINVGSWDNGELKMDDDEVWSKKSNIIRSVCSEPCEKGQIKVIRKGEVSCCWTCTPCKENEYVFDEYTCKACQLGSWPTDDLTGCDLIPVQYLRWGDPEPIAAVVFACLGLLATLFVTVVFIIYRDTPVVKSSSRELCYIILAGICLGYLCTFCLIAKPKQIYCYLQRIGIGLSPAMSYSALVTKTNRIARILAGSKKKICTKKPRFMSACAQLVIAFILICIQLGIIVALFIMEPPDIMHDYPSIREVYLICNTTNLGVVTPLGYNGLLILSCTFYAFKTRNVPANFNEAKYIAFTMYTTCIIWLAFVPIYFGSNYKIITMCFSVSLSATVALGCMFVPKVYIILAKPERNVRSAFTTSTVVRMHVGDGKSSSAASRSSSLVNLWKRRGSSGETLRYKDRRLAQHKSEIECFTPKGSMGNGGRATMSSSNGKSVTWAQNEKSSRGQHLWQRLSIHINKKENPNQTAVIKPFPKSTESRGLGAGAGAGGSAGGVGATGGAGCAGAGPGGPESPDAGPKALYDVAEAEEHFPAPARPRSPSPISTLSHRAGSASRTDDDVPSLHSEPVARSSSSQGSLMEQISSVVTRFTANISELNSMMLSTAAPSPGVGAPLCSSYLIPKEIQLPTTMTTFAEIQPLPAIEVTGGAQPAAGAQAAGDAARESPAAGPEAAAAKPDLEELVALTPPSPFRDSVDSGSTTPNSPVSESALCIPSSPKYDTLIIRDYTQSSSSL

On human mGlu5 receptor [1], `C[C@@H](NC(=O)c1ccc(C#Cc2cccc(F)c2)cn1)C(C)(C)O` [VU0424465, (R)-5-((3-fluorophenyl)ethynyl)-N-(3-hydroxy-3-methylbutan-2-yl) picolinamide] gave an EC50 of 2.95 nM.
With `N[C@@H](Cn1oc(=O)[nH]c1=O)C(=O)O` [quisqualate], on human mGlu5 receptor [2], the half-maximal effective concentration (EC50) is 30.9 nM.
